Source: patent publication US4419123A, “Herbicidal 4-trifluoromethyl-3'-carbon-substituted-4'-substituted diphenyl ethers” (Rohm and Haas Company, priority 1981, dated 1983)

How the values were obtained:
cotton = test: Crop tolerance (selective herbicidal activity), cotton; format: in vivo
Method: (§1) The following test procedure is employed.
(§2) Following the general test procedure of Example 37, diphenyl ethers are evaluated for significant tolerance (as shown by 50% or less kill of the test crop at levels of application which give more than 50% kill of many or all of the weeds of Example 73) towards some or all of the following common agronomic crops (not all compounds tested against all crops): alfalfa, snapbeans, corn, cotton, cucumbers, peanuts, rape, rice, safflower, soybeans, tomatoes, and wheat.

safflower = test: Crop tolerance (selective herbicidal activity), safflower; format: in vivo; conditions: preemergence applications
Method: as §1, §2

soybeans = test: Crop tolerance (selective herbicidal activity), soybeans; format: in vivo
[1] = Postemergence herbicidal activity (% control) against dicot weeds; conditions: post-emergence, 336 h
[2] = Preemergence herbicidal activity (% control) against dicot weeds; conditions: pre-emergence, 336 h
[3] = Preemergence herbicidal activity (% control) against monocot weeds; format: in vivo; conditions: pre-emergence, 336 h, average, read-out: Herbicidal activity (% control), preemergence, monocots
Text: (§3) barnyardgrass (Echinochloa crusgalli) crabgrass (Digitaria spp.) nutsedge (Cyperus esculentus)
(§4) At 2 and 4 pounds per acre:
(§5) **Bermudagrass (Cynodon dactylon)
(§6) *downy brome (Bromus tectorum) foxtail (Setaria faberii)
(§7) Johnsongrass (Sorghum halepense) […]
(§8) quackgrass (Agropyron repens)
(§9) *ryegrass (Lolium perenne)
(§10) *wild oats (Avena factua)
(§11) *yellow millet (Panicum miliaceum)
as §1

[4] = Postemergence herbicidal activity (% control) against monocot weeds; format: in vivo; conditions: post-emergence, 336 h, average, read-out: Herbicidal activity (% control), postemergence, monocots
Text: as §3, §4, §5, §6, §7, §8, §9, §10, §11, §1

peanuts = test: Crop tolerance (selective herbicidal activity), peanuts; format: in vivo; conditions: preemergence applications
rice = test: Crop tolerance (selective herbicidal activity), rice; format: in vivo; conditions: postemergence applications or applications on transplanted rice
[5] = postemergence or layby applications
[6] = 4 lb./A., about two weeks after application
[7] = 10 lb./A., about two weeks after application

With `CCOc1cc(Oc2ccc(C(F)(F)F)cc2Cl)ccc1[N+](=O)[O-]` [Example 3, 2-Chloro-α,α,α-trifluoro-p-tolyl-3-ethoxy-4-nitrophenyl ether] the Tolerance to cotton (cotton; [5]) was “Tolerance (significant tolerance (as shown by 50% or less kill of the test crop at levels of application which give more than 50% kill of many or all of the weeds of Example 73))”, the Tolerance to cotton (cotton; preemergence applications) was “Tolerance (significant tolerance (as shown by 50% or less kill of the test crop at levels of application which give more than 50% kill of many or all of the weeds of Example 73))” and the Tolerance to safflower (safflower) was “Tolerance (significant tolerance (as shown by 50% or less kill of the test crop at levels of application which give more than 50% kill of many or all of the weeds of Example 73))”. The Tolerance to soybeans (soybeans; [5]) was “Tolerance (significant tolerance (as shown by 50% or less kill of the test crop at levels of application which give more than 50% kill of many or all of the weeds of Example 73))”, the Tolerance to soybeans (soybeans; preemergence applications) was “Tolerance (significant tolerance (as shown by 50% or less kill of the test crop at levels of application which give more than 50% kill of many or all of the weeds of Example 73))” and the pest or weed control at 560.425 g/ha ([1]; read-out: Herbicidal activity (% control), postemergence, dicots) was 97%. The activity at 4483.4 g/ha ([1]; read-out: Herbicidal activity (% control), postemergence, dicots, 4 lb./A., average, about two weeks after application) was 100%, the activity at 11208.5 g/ha ([1]; read-out: Herbicidal activity (% control), postemergence, dicots, 10 lb./A., average, about two weeks after application) was 100% and the pest or weed control at 280.212 g/ha ([2]; read-out: Herbicidal activity (% control), preemergence, dicots) was 66%. For the same molecule, the activity at 4483.4 g/ha ([2]; read-out: Herbicidal activity (% control), preemergence, dicots, 4 lb./A., average, about two weeks after application) was 99%, the activity at 11208.5 g/ha ([2]; read-out: Herbicidal activity (% control), preemergence, dicots, 10 lb./A., average, about two weeks after application) was 100% and the pest or weed control at 280.212 g/ha ([3]; 1/4 lb./A.) was 84%. The activity at 4483.4 g/ha [3, 6] was 89%, the activity at 11208.5 g/ha [3, 7] was 99% and the pest or weed control at 560.425 g/ha ([4]; 1/2 lb./A. (footnote +)) was 96%. For the same molecule, the activity at 4483.4 g/ha [4, 6] was 99%, the activity at 11208.5 g/ha [4, 7] was 100% and the Tolerance to peanuts (peanuts) was “Tolerance (significant tolerance (as shown by 50% or less kill of the test crop at levels of application which give more than 50% kill of many or all of the weeds of Example 73))”. The Tolerance to rice (rice) was “Tolerance (significant tolerance (as shown by 50% or less kill of the test crop at levels of application which give more than 50% kill of many or all of the weeds of Example 73))”.
